According to US11319348B2, “Synthetic beta-amyloid peptides capable of forming stable antigenic oligomers” (The Regents of the University of California, priority 2016, dated 2022):
Non-standard residues stand in square brackets, D forms with d. No end group written: not given here. NMeF = CN[C@@H](Cc1ccccc1)C(=O)O; Orn = NCCC[C@H](N)C(=O)O

Key:
caspase-3 = caspase-3 activation assay; type: cell-based, human; details: for caspase-3 activation / induction of caspase-3 mediated apoptosis: SH-SY5Y cells; for caspase-3 activation: 72 h; for induction of caspase-3 mediated apoptosis: trimers at 6 μM, within 72 h; for caspase-3 activity level compared to staurosporine: after treatment of SH-SY5Y cells
Experimental: One of the ways in which A oligomers elicit toxicity is through induction of caspase-3 mediated apoptosis. Trimers 3 and 4 were evaluated for their ability to induce caspase-3 mediated apoptosis using a rhodamine-based caspase-3 activity assay.
The toxicities of peptides 1 and […], and trimers 3 and 4 toward SH-SY5Y cells were assessed by LDH release and caspase-3 activation assays. Cells were incubated in the presence or absence of equivalent concentrations of peptides 1 or 3, or trimers 3 and 4 for 72 h in 96-well plates. The LDH release assay was performed using the Pierce LDH Cytotoxicity Assay Kit from Thermo Scientific. The caspase-3 assay was performed using the Roche APO-One Homogeneous Caspase-3/7 Assay. Experiments were performed in replicates of five and an additional 10 wells were used for controls. Cells were cultured in the inner 60 wells (rows B-G, columns 2-11) of the 96-well plate. DMEM:F12 media (100 μL) was added to the outer wells (rows A and H, columns 1 and 12), in order to ensure the greatest reproducibility of data generated in the inner wells.
SH-SY5Y cells were plated in a 96-well plate at 30,000 cells per well. Cells were incubated in 100 μL of a 1:1 mixture of DMEM:F12 media supplemented with 10% fetal bovine serum, 100 U/mL penicillin, and 100 μg/mL streptomycin at 37° C. in a 5% CO2 atmosphere and allowed to adhere to the bottom of the plate for 24 hours.
After 24 hours, the culture media was removed and replaced with 90 μL of serum-free DMEM:F12 media. A 10 μL aliquot of the working solutions of peptides 1 or 2, or trimers 3 and 4 was added to each well, for a well-concentration of 18 μM and 9 μM for peptides 1 and 2, 6 μM and 3 μM for trimer 3 or 6 μM, 3 μM, 1.5 μM, and 0.75 μM for trimer 4. Experiments were run in replicates of five. Five wells were used as controls and received a 10 μL aliquot of deionized water (vehicle). Another five wells were left untreated, to be subsequently used as controls with lysis buffer for the LDH release assay, or staurosporine for the caspase-3 activation assay. Cells were incubated at 37° C. in a 5% CO2 atmosphere for 72 hours.
After 67 hours, 10 μL of 10× staurosporine was added to the control wells, and the cells were incubated for an additional 5 h. Next, the compound-containing media was removed and replaced with 25 μL of fresh serum-free DMEM/F12 media. A 25-μL aliquot of caspase-3 substrate, prepared according to manufacturer's protocol, was then added to each well. The plate was sealed with a clear adhesive plate sealer and fluorescence was monitored over 18 h while shaking at 250 rpm using a Gemini XPS fluorescence plate reader (excitation at 499 nm, emission at 521 nm). Data from the 18 h time point were processed by subtracting the relative fluorescence units (RFU) of the vehicle control wells from the RFU of the peptides 1 and 2 or trimers 3 and 4-treated wells.

A11 antibody = test: dot blot with A11 antibody; type: binding
Excerpt: The LDH release and caspase-3 activation studies indicate that trimers 3 and 4 behave similarly to oligomers of full-length Aβ, providing evidence for the biological significance of the triangular assembly. To further evaluate how the biological properties of trimers 3 and 4 compare to those of full-length Aβ, the reactivity of trimers 3 and 4 with the conformation specific antibody A11 was examined. […] The structures of the A oligomers recognized by the A11 antibody are not known. We investigated whether the A11 antibody recognizes trimers 3 and 4 by dot blot analysis.
A 10 mg/mL stock solution of peptides 1 or 2, or trimers 3 or 4 was prepared gravimetrically by dissolving 1 mg of each compound in 100 μL of deionized water that was either filtered through a 0.2 μm syringe filter. An aliquot of each stock solution was diluted with deionized water to make 3 mg/mL solutions. The 3 mg/mL solutions were then serially diluted with deionized water to create 1.5 mg/mL, 0.75 mg/mL, and 0.37 mg/mL solutions. A 5 μL aliquot of each solution from the serial dilution was combined with 5 μL of a 2× solution of phosphate buffered saline (PBS) at pH 7.4 to generate 1.5 mg/mL, 0.75 mg/mL, and 0.37 mg/mL, and 0.18 mg/mL buffered solutions of peptides 1 or 2 or trimers 3 or 4. A 1-μL aliquot of each buffered solution was spotted onto a nitrocellulose membrane and allowed to aft dry (˜5 min). Non-reactive sites were blocked with 10% (w/v) non-fat powdered milk in low-Tween Tris-buffered saline (TBS-IT: 20 mM Tris, 137 mM NaCl; 0.01% Tween 20, pH 7.6) for 1 h at room temperature with rocking. The membrane was then incubated while rocking overnight at 4° C. in primary A11 antibody (200 μg/mL) in 5% non-fat powdered milk in TBS-IT. The next day, the membrane was washed with TBS-IT for 5 min (3×). The membrane was then incubated while rocking with horseradish peroxidase conjugated goat anti-rabbit antibody (100 μg/mL) (Jackson ImmunoResearch catalog #111-035-003) in 5% non-fat powdered milk in TBS-IT for 1 h at room temperature. The membrane was then washed with TBS-IT for 5 min (3×). A 10 mL portion of chemiluminescence substrate (Thermo Scientific SuperSignal West Femto Maximum Sensitivity Substrate, product #34095) was prepared according to manufacturer's protocol and poured onto the membrane. The membrane was allowed to incubate in the chemiluminescence substrate for ˜10 min before imaging. The blot was imaged using a standard digital SLR camera.

caspase-3 activation (caspase-3)	caspase-3 activity level compared to staurosporine (caspase-3)	Substance	induction of caspase-3 mediated apoptosis (caspase-3)	A11 reactivity (A11 antibody)	reaction with A11 antibody (A11 antibody)
no		peptide 2: macrocyclic β-sheet peptide: Aβ17-23 and Aβ30-36 strands linked by two δOrn turns, Orn35, N-methyl on F20 (Seq. ID 20-21)	little or no effect	no	do not
yes	comparable	trimer 3: symmetric tris-disulfide crosslinked trimer generated from peptide 3 (chain 1 [Orn]CVFFCED; chain 2 [Orn]AIIGL[Orn]V; not fully specified (some residues); also: symmetric tris-disulfide crosslinked trimer, macrocyclic by macrolactamization, linkage of strands not given here)	induced apoptosis	yes	react with the A11 antibody
yes	comparable	trimer 4: symmetric tris-disulfide crosslinked trimer generated from peptide 4 (chain 1 [Orn]CVF[NMeF]CED; chain 2 [Orn]AIIGL[Orn]V; also: symmetric tris-disulfide crosslinked trimer, macrocyclic by macrolactamization, linkage of strands not given here)	induced apoptosis	yes	react with the A11 antibody

Substance	caspase-3 activation (caspase-3)	caspase-3 activity level compared to staurosporine (caspase-3)	induction of caspase-3 mediated apoptosis (caspase-3)	A11 reactivity (A11 antibody)	reaction with A11 antibody (A11 antibody)
peptide 1: macrocyclic β-sheet peptide: Aβ17-23 and Aβ30-36 strands linked by two δOrn turns, Orn35, N-methyl on G33 (Seq. ID 18-19)	no		little or no effect	no	do not
